Results reported in PMC11855086, “Synthesis, Antimicrobial Activity, and Tyrosinase Inhibition by Multifunctional 3,4-Dihydroxy-Phenyl Peptidomimetics” (International Journal of Molecular Sciences, 2025).
Converted amounts (≈) assume the structure as drawn.

Experiments:
E. cloacae (ATCC 49141) = assay: MIC and MBC, microtiter plate technique; format: cell-based; settings: ATCC49141, Enterobacter cloacae; for MIC: 24 h, resazurin; for MBC: TTC
E. coli K12 (ATCC 25404) = assay: MIC and MBC, microtiter plate technique; format: cell-based; settings: Escherichia coli; for MBC: ATCC25404; for MIC: ATCC25404, 24 h
[1] = biological target: T1, mushroom tyrosinase (mTYR) (Agaricus bisporus, UniProt C7FF04); assay: Tyrosinase assay with L-DOPA as substrate (absorbance at 475 nm); format: biochemical; settings: 100 µM compound
T1 construct: purchased Sigma-Aldrich (Poznan, Poland); host or cells: Agaricus bisporus (extracted natural enzyme)
Description: Tyrosinase (Tyr) extracted from Agaricus bisporus (mushroom tyrosinase, mTYR) is commonly used as a model enzyme for human Tyr due to its high purity, stability, and commercial availability. It is frequently used in the selection of TYR inhibitors. Following established literature protocols, L-tyrosine and L-DOPA, which serve as substrates for monophenol and diphenol oxidation, respectively, were used to assess the tyrosinase inhibitory activity of synthesized target compounds [21].
Tyrosinase (Tyr) activity was measured using L-DOPA as substrate and phosphate buffer solution (PBS) as blank control, following the method described by Min He et al. (2022) with an ultraviolet spectrophotometer (Carry-300, Agilent Life Sciences and Chemical Analysis, Santa Clara, CA, USA). […] Before the experiment, 2.9 mL of PBS and 0.1 mL of DMSO were used to account for the influence of the background solvent. The inhibitor solution (100 µL), substrate solution (2.8 mL), and Tyr solution (100 µL) were then added to a quartz colorimetric cuvette. After a one-minute mixing period, the absorption spectra of the mixture were continuously recorded at 475 nm using the UV spectrophotometer (Carry-300) for 5 min over a period of every 30 s. The tyrosinase inhibition rate was calculated as follows:Relative enzyme activity (%) = (A1 − A2)/A1 × 100
A1 = Absorbance of L-DOPA and inhibitor.
A2 = Absorbance of L-DOPA, inhibitor, and tyrosinase.

E. coli R2 (ATCC 39544) = assay: MIC and MBC, microtiter plate technique; format: cell-based; settings: Escherichia coli; for MBC: ATCC39544; for MIC: ATCC39544, 24 h
[2] = tested on: P. aeruginosa (ATCC 15442); assay: MIC and MBC, microtiter plate technique; format: cell-based; settings: ATCC15442, Pseudomonas aeruginosa; for MIC: 24 h, resazurin; for MBC: TTC
[3] = tested on: A. baumannii (ATCC 17978); assay: MIC and MBC, microtiter plate technique; format: cell-based; settings: ATCC17978, Acinetobacter baumannii; for MIC: 24 h, resazurin; for MBC: TTC
[4] = biological target: T1, mushroom tyrosinase (mTYR); set-up: method as in earlier work; settings: reported value; cited from earlier work
E. coli R4 (ATCC 39543) = assay: MIC and MBC, microtiter plate technique; format: cell-based; settings: Escherichia coli; for MBC: ATCC39543; for MIC: ATCC39543, 24 h
E. coli R3 (ATCC 11775) = assay: MIC and MBC, microtiter plate technique; format: cell-based; settings: Escherichia coli; for MIC: ATCC11775, 24 h, resazurin; for MBC: ATCC11775, TTC
S. aureus (ATCC 23235) = assay: microbe, parasite or virus in culture; format: cell-based; settings: Staphylococcus aureus; for MBC: ATCC23235; for MIC: ATCC23235, 24 h
MTT cytotoxicity assay = format: cell-based; settings: mouse, BALB/c3T3 mouse embryonic fibroblast cells; for viability at 24 h, 1 µM: read-out: cell viability
Description: Following the completion of MIC and MBC assays on the analyzed bacterial strains, and subsequent treatment with Fpg protein modified by peptidomimetics along with selected antibiotics, a further MTT assay was conducted to evaluate the cytotoxicity of the compounds employing the BALB/c3T3 mouse embryonic fibroblast cell line (Figure 10).
BALB/c3T3 mouse embryonic fibroblast cells were exposed to peptidomimetics across concentrations ranging from 0.5 µM to 3.5 µM and incubated for a duration of 24 h. […] The highest concentrations (2.5 µM and 3.5 µM) inhibited cell viability, which was reduced to 20.2% and 1.0%, respectively (Figure 10 and Figure S40 in the Supplementary Materials).
The cytotoxic effects of aldehyde 1 and peptidomimetics 5a–r on BALB/c3T3 mouse fibroblast cells were assessed utilizing the MTT assay following a 24 h incubation period across five different concentrations (0.5, 1.0, 1.5, 2.5, and 3.5 µM). The MTT assay is predicated upon the capacity of mitochondrial dehydrogenase enzymes to convert the water-soluble tetrazolium salt, 3-([…])-2,5-diphenyltetrazolium bromide (MTT), into an insoluble formazan product, manifesting as dark blue crystals. These formazan crystals are then dissolved in DMSO or isopropanol, forming a colored solution whose intensity is measured spectrophotometrically within the wavelength range of 492–570 nm. The amount of MTT reduced corresponds to the oxidative activity of the mitochondria, which is directly proportional to the number of metabolically active cells in the population under defined experimental conditions. The MTT assay can also be used to assess cell viability in non-dividing metabolically active cells. It is one of the most widely used methods to assess cytotoxic activity and is recommended by international standards organizations as a reference method.

[5] = tested on: E. coli, A. baumannii, P. aeruginosa, E. cloacae, and S. aureus; assay: MIC and MBC over all model bacterial strains (summary statements); format: cell-based; settings: Gram-positive and Gram-negative bacteria

T1 sequence (C7FF04 1-392 limits assumed): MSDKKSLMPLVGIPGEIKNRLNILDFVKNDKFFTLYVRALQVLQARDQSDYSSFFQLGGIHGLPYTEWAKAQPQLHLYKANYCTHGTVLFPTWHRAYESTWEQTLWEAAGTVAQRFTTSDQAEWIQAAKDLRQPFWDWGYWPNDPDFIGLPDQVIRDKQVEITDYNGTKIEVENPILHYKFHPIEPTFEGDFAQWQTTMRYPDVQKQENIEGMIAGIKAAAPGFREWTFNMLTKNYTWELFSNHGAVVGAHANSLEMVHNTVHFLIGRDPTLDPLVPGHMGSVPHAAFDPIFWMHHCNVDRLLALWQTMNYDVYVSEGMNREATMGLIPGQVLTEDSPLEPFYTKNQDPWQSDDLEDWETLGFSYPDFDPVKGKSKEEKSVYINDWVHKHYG

| Compound | MIC (E. cloacae (ATCC 49141)) | MBC (E. cloacae (ATCC 49141)) | MBC (E. coli K12 (ATCC 25404)) | MIC (E. coli K12 (ATCC 25404)) | inhibition at 100 µM [1] | MBC (E. coli R2 (ATCC 39544)) | MIC (E. coli R2 (ATCC 39544)) | MIC [2] | MBC [2] | MIC [3] | MBC [3] | MBC (E. coli R4 (ATCC 39543)) | MIC (E. coli R4 (ATCC 39543)) | MIC (E. coli R3 (ATCC 11775)) | MBC (E. coli R3 (ATCC 11775)) | MBC (S. aureus (ATCC 23235)) | MIC (S. aureus (ATCC 23235)) | viability at 24 h, 1 µM (MTT cytotoxicity assay) | also measured |
| --- | --- | --- | --- | --- | --- | --- | --- | --- | --- | --- | --- | --- | --- | --- | --- | --- | --- | --- | --- |
| O=Cc1ccc(O)c(O)c1 [Compound 1, 3,4-dihydroxybenzaldehyde, reference compound] | 2.75 µM (≈ 0.38 µg/mL) | 3.04 µM (≈ 0.42 µg/mL) | 1.82 µM (≈ 0.251 µg/mL) | 1.39 µM (≈ 0.192 µg/mL) | 15% | 2.6 µM (≈ 0.359 µg/mL) | 2.46 µM (≈ 0.34 µg/mL) | 3 µM (≈ 0.414 µg/mL) | 3.33 µM (≈ 0.46 µg/mL) | 2.82 µM (≈ 0.39 µg/mL) | 3.55 µM (≈ 0.49 µg/mL) | 3.58 µM (≈ 0.494 µg/mL) | 3.57 µM (≈ 0.493 µg/mL) | 2.85 µM (≈ 0.394 µg/mL) | 2.96 µM (≈ 0.409 µg/mL) | 3.33 µM (≈ 0.46 µg/mL) | 2.67 µM (≈ 0.369 µg/mL) | – | IC50 [4]: 250 µM |
| COc1ccc(CN(C(=O)Cc2ccccc2)C(C(=O)NCc2ccccc2)c2ccc(O)c(O)c2)cc1 (centres unmarked) [Compound 5a, N-benzyl-2-(3,4-dihydroxyphenyl)-2-(N-(4-methoxybenzyl)-2-phenylacetamido)-acetamide] | 0.58 µM (≈ 0.296 µg/mL) | 0.62 µM (≈ 0.317 µg/mL) | 0.32 µM (≈ 0.163 µg/mL) | 0.3 µM (≈ 0.153 µg/mL) | < 10% | 0.62 µM (≈ 0.317 µg/mL) | 0.59 µM (≈ 0.301 µg/mL) | 0.62 µM (≈ 0.317 µg/mL) | 0.66 µM (≈ 0.337 µg/mL) | 0.63 µM (≈ 0.322 µg/mL) | 0.68 µM (≈ 0.347 µg/mL) | 1.15 µM (≈ 0.587 µg/mL) | 0.88 µM (≈ 0.449 µg/mL) | 0.66 µM (≈ 0.337 µg/mL) | 0.84 µM (≈ 0.429 µg/mL) | 0.68 µM (≈ 0.347 µg/mL) | 0.65 µM (≈ 0.332 µg/mL) | – | IC50 at 24 h (MTT cytotoxicity assay; 24 h of incubation, (±0.14), read-out: half maximum inhibitory concentration (IC50), cytotoxicity): 1.61 µM; antibacterial spectrum [5]: broad-spectrum activity |
| COc1ccc(CN(C(=O)Cc2ccccc2)C(C(=O)NCc2ccc(F)cc2)c2ccc(O)c(O)c2)cc1 (centres unmarked) [Compound 5c, 2-(3,4-dihydroxyphenyl)-N-(4-fluorobenzyl)-2-(N-(4-methoxybenzyl)-2-phenylacetamido)-acetamide] | 1.08 µM (≈ 0.571 µg/mL) | 1.11 µM (≈ 0.587 µg/mL) | 0.66 µM (≈ 0.349 µg/mL) | 0.45 µM (≈ 0.238 µg/mL) | < 10% | 1.04 µM (≈ 0.55 µg/mL) | 1 µM (≈ 0.529 µg/mL) | 1.04 µM (≈ 0.55 µg/mL) | 1.09 µM (≈ 0.576 µg/mL) | 0.84 µM (≈ 0.444 µg/mL) | 0.94 µM (≈ 0.497 µg/mL) | 2.36 µM (≈ 1.25 µg/mL) | 1.98 µM (≈ 1.05 µg/mL) | 1.61 µM (≈ 0.851 µg/mL) | 1.79 µM (≈ 0.946 µg/mL) | 1 µM (≈ 0.529 µg/mL) | 0.96 µM (≈ 0.507 µg/mL) | 60.2% | – |
| CCCCN(C(C)=O)C(C(=O)NCc1ccccc1)c1ccc(O)c(O)c1 (centres unmarked) [Compound 5p, N-benzyl-2-(N-butylacetamido)-2-(3,4-dihydroxyphenyl)acetamide] | 0.86 µM (≈ 0.319 µg/mL) | 0.94 µM (≈ 0.348 µg/mL) | 0.89 µM (≈ 0.33 µg/mL) | 0.33 µM (≈ 0.122 µg/mL) | > 10% | 1.51 µM (≈ 0.559 µg/mL) | 0.84 µM (≈ 0.311 µg/mL) | 0.88 µM (≈ 0.326 µg/mL) | 0.94 µM (≈ 0.348 µg/mL) | 0.87 µM (≈ 0.322 µg/mL) | 0.9 µM (≈ 0.333 µg/mL) | 1.7 µM (≈ 0.63 µg/mL) | 1.58 µM (≈ 0.585 µg/mL) | 1.27 µM (≈ 0.47 µg/mL) | 1.64 µM (≈ 0.608 µg/mL) | 0.94 µM (≈ 0.348 µg/mL) | 0.87 µM (≈ 0.322 µg/mL) | – | – |
| CCCCN(C(C)=O)C(C(=O)NCc1ccc(OC)cc1)c1ccc(O)c(O)c1 (centres unmarked) [Compound 5q, 2-(N-butylacetamido)-2-(3,4-dihydroxyphenyl)-N-(4-methoxybenzyl)acetamide] | 0.84 µM (≈ 0.336 µg/mL) | 0.85 µM (≈ 0.34 µg/mL) | 0.79 µM (≈ 0.316 µg/mL) | 0.43 µM (≈ 0.172 µg/mL) | < 10% | 1.44 µM (≈ 0.577 µg/mL) | 0.82 µM (≈ 0.328 µg/mL) | 0.83 µM (≈ 0.332 µg/mL) | 0.87 µM (≈ 0.348 µg/mL) | 0.81 µM (≈ 0.324 µg/mL) | 0.85 µM (≈ 0.34 µg/mL) | 1.58 µM (≈ 0.633 µg/mL) | 1.49 µM (≈ 0.597 µg/mL) | 1.13 µM (≈ 0.453 µg/mL) | 1.52 µM (≈ 0.609 µg/mL) | 0.91 µM (≈ 0.364 µg/mL) | 0.81 µM (≈ 0.324 µg/mL) | 86.9% | – |
| CCCCN(C(C)=O)C(C(=O)NCc1ccc(F)cc1)c1ccc(O)c(O)c1 (centres unmarked) [Compound 5r, 2-(N-butylacetamido)-2-(3,4-dihydroxyphenyl)-N-(4-fluorobenzyl)acetamide] | 1.67 µM (≈ 0.649 µg/mL) | 1.5 µM (≈ 0.583 µg/mL) | 0.94 µM (≈ 0.365 µg/mL) | 0.74 µM (≈ 0.287 µg/mL) | < 10% | 1.51 µM (≈ 0.587 µg/mL) | 1.5 µM (≈ 0.583 µg/mL) | 1.64 µM (≈ 0.637 µg/mL) | 1.49 µM (≈ 0.579 µg/mL) | 1.26 µM (≈ 0.489 µg/mL) | 1.31 µM (≈ 0.509 µg/mL) | 3.5 µM (≈ 1.36 µg/mL) | 3.13 µM (≈ 1.22 µg/mL) | 2.56 µM (≈ 0.994 µg/mL) | 3.14 µM (≈ 1.22 µg/mL) | 1.54 µM (≈ 0.598 µg/mL) | 1.51 µM (≈ 0.587 µg/mL) | – | – |
